Measurements from patent US20220323548A1 (priority 2019, published 2022).
No end group written: not given here. *: point of attachment. undeca‑saccharide = not defined here; Decanoyl = CCCCCCCCCC(=O)*

How the values were obtained:
human GLP-1R [1] = target: human GLP-1R (Homo sapiens, UniProt P43220); experiment: GLP-1 receptor luciferase reporter assay (part I, glycosylated analogs); assay type: cell-based; settings: CV-1 cells transfected with human GLP-1R and CRE, Table 2
Procedure: Specifically, the fibroblast cell line CV-1 (1×10^4 cells/ml, Korea Cell Line Bank) was cultured on a 96-well white cell culture plate for 24 hours, and then human GLP-1R (pcDNA3.1_hGLP-1R) and cAMP response element (CRE, pcDNA3.1_hCRE) were added to perform transfection. After 24 hours, the medium was exchanged with a serum-free medium, followed by culture for 16 hours, and then each analog was treated for 6 hours. The expression level of luciferase, a reporter gene, by activated GLP-1R, was quantified by a luminometer, and the results are shown in Table 2.

rat islets = experiment: Glucose-dependent insulin secretion from rat islets, rat insulin ELISA (part I); assay type: cell-based; settings: 28 mM glucose
Source text: Specifically, the pancreas of 8-week-old SD rats (Damul Science) was extracted, and islets were isolated.

Solubility by HPLC = assay type: physicochemical; settings: at 10 mg/ml
human GLP-1R [2] = target: human GLP-1R (human, UniProt P43220 24-463); experiment: cell-based or functional assay

human GLP-1R (Homo sapiens, UniProt P43220), sequence (P43220 24-463): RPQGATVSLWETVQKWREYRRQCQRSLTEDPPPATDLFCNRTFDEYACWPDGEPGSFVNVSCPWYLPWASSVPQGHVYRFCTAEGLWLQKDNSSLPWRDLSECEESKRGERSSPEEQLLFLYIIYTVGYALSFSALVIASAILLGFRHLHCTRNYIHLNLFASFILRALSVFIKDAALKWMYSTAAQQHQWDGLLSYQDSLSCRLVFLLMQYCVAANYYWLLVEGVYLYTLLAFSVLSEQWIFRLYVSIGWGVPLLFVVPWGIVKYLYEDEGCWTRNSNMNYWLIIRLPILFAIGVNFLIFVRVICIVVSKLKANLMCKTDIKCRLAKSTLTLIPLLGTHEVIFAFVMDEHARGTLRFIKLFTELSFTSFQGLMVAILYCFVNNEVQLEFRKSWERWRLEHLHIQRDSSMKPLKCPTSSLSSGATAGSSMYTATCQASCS

Molecule | Emax (fold induction over basal) (human GLP-1R [1]) | Insulin secretion from rat islets (rat islets; 10 nM analog, Table 4) | Insulin secretion from rat islets (rat islets; 100 nM analog, Table 4) | Emax (fold induction over basal), CRE-luciferase reporter (human GLP-1R [2]) | other results
CCCCCCCCCC(=O)NCCCC[C@H](NC(=O)[C@H](CO)NC(=O)[C@@H]1CCCN1C(=O)CNC(=O)CNC(=O)[C@H](CC(N)=O)NC(=O)[C@H](CCCCN)NC(=O)[C@H](CC(C)C)NC(=O)[C@H](Cc1c[nH]c2ccccc12)NC(=O)[C@H](CSCC(=O)N[C@@H]1O[C@H](CO)[C@@H](O[C@@H]2O[C@H](CO)[C@@H](O[C@@H]3O[C@H](CO[C@H]4O[C@H](CO)[C@@H](O)[C@H](O)[C@@H]4O[C@@H]4O[C@H](CO)[C@@H](O[C@@H]5O[C@H](CO[C@]6(C(=O)OCc7ccccc7)C[C@H](O)[C@@H](NC(C)=O)[C@H]([C@H](O)[C@H](O)CO)O6)[C@H](O)[C@H](O)[C@H]5O)[C@H](O)[C@H]4NC(C)=O)[C@@H](O)[C@H](O[C@H]4O[C@H](CO)[C@@H](O)[C@H](O)[C@@H]4O[C@@H]4O[C@H](CO)[C@@H](O[C@@H]5O[C@H](CO[C@]6(C(=O)OCc7ccccc7)C[C@H](O)[C@@H](NC(C)=O)[C@H]([C@H](O)[C@H](O)CO)O6)[C@H](O)[C@H](O)[C@H]5O)[C@H](O)[C@H]4NC(C)=O)[C@@H]3O)[C@H](O)[C@H]2NC(C)=O)[C@H](O)[C@H]1NC(C)=O)NC(=O)[C@@H](NC(=O)[C@H](Cc1ccccc1)NC(=O)[C@H](CC(C)C)NC(=O)[C@H](CCCNC(=N)N)NC(=O)[C@@H](NC(=O)[C@H](C)NC(=O)[C@H](CSCC(=O)N[C@@H]1O[C@H](CO)[C@@H](O[C@@H]2O[C@H](CO)[C@@H](O[C@@H]3O[C@H](CO[C@H]4O[C@H](CO)[C@@H](O)[C@H](O)[C@@H]4O[C@@H]4O[C@H](CO)[C@@H](O[C@@H]5O[C@H](CO[C@]6(C(=O)OCc7ccccc7)C[C@H](O)[C@@H](NC(C)=O)[C@H]([C@H](O)[C@H](O)CO)O6)[C@H](O)[C@H](O)[C@H]5O)[C@H](O)[C@H]4NC(C)=O)[C@@H](O)[C@H](O[C@H]4O[C@H](CO)[C@@H](O)[C@H](O)[C@@H]4O[C@@H]4O[C@H](CO)[C@@H](O[C@@H]5O[C@H](CO[C@]6(C(=O)OCc7ccccc7)C[C@H](O)[C@@H](NC(C)=O)[C@H]([C@H](O)[C@H](O)CO)O6)[C@H](O)[C@H](O)[C@H]5O)[C@H](O)[C@H]4NC(C)=O)[C@@H]3O)[C@H](O)[C@H]2NC(C)=O)[C@H](O)[C@H]1NC(C)=O)NC(=O)[C@H](CCC(=O)O)NC(=O)[C@H](CCC(=O)O)NC(=O)[C@H](CCSC)NC(=O)[C@H](CCC(N)=O)NC(=O)[C@H](CCCCN)NC(=O)[C@H](CO)NC(=O)[C@H](CC(C)C)NC(=O)[C@H](CC(=O)O)NC(=O)[C@H](CO)NC(=O)[C@@H](NC(=O)[C@H](Cc1ccccc1)NC(=O)[C@@H](NC(=O)CNC(=O)[C@H](CCC(=O)O)NC(=O)CNC(=O)[C@@H](N)Cc1c[nH]cn1)[C@@H](C)O)[C@@H](C)O)C(C)C)[C@@H](C)CC)C(=O)O [AGM-212(E17C-11 sugar & E24C-11 sugar)] | 9.7 ± 1.2 fold induction over basal | 6763.40 ± 32.83 pg/mL | 14650.94 ± 3305.28 pg/mL |  | 
CCCCCCCCCC(=O)NCCCC[C@H](NC(=O)[C@H](CO)NC(=O)[C@@H]1CCCN1C(=O)CNC(=O)CNC(=O)[C@H](CC(N)=O)NC(=O)[C@H](CCCCN)NC(=O)[C@H](CC(C)C)NC(=O)[C@H](Cc1c[nH]c2ccccc12)NC(=O)[C@H](CCC(=O)O)NC(=O)[C@@H](NC(=O)[C@H](Cc1ccccc1)NC(=O)[C@H](CC(C)C)NC(=O)[C@H](CCCNC(=N)N)NC(=O)[C@@H](NC(=O)[C@H](C)NC(=O)[C@H](CSCC(=O)N[C@@H]1O[C@H](CO)[C@@H](O[C@@H]2O[C@H](CO)[C@@H](O[C@@H]3O[C@H](CO[C@H]4O[C@H](CO)[C@@H](O)[C@H](O)[C@@H]4O[C@@H]4O[C@H](CO)[C@@H](O[C@@H]5O[C@H](CO[C@]6(C(=O)OCc7ccccc7)C[C@H](O)[C@@H](NC(C)=O)[C@H]([C@H](O)[C@H](O)CO)O6)[C@H](O)[C@H](O)[C@H]5O)[C@H](O)[C@H]4NC(C)=O)[C@@H](O)[C@H](O[C@H]4O[C@H](CO)[C@@H](O)[C@H](O)[C@@H]4O[C@@H]4O[C@H](CO)[C@@H](O[C@@H]5O[C@H](CO[C@]6(C(=O)OCc7ccccc7)C[C@H](O)[C@@H](NC(C)=O)[C@H]([C@H](O)[C@H](O)CO)O6)[C@H](O)[C@H](O)[C@H]5O)[C@H](O)[C@H]4NC(C)=O)[C@@H]3O)[C@H](O)[C@H]2NC(C)=O)[C@H](O)[C@H]1NC(C)=O)NC(=O)[C@H](CCC(=O)O)NC(=O)[C@H](CCC(=O)O)NC(=O)[C@H](CCSC)NC(=O)[C@H](CCC(N)=O)NC(=O)[C@H](CCCCN)NC(=O)[C@H](CO)NC(=O)[C@H](CC(C)C)NC(=O)[C@H](CC(=O)O)NC(=O)[C@H](CO)NC(=O)[C@@H](NC(=O)[C@H](Cc1ccccc1)NC(=O)[C@@H](NC(=O)CNC(=O)[C@H](CCC(=O)O)NC(=O)CNC(=O)[C@@H](N)Cc1c[nH]cn1)[C@@H](C)O)[C@@H](C)O)C(C)C)[C@@H](C)CC)C(=O)O [AGM-212(E17C-11 sugar)] | 10.1 ± 1.2 fold induction over basal |  |  |  | Insulin secretion from rat islets (rat islets; 10 nM analog, Table 3): 7895.09 ± 2457.36 pg/mL; Insulin secretion from rat islets (rat islets; 100 nM analog, Table 3): 9523.02 ± 2852.08 pg/mL
CCCCCCCCCC(=O)NCCCC[C@H](NC(=O)[C@H](CO)NC(=O)[C@@H]1CCCN1C(=O)CNC(=O)CNC(=O)[C@H](CSCC(=O)N[C@@H]1O[C@H](CO)[C@@H](O[C@@H]2O[C@H](CO)[C@@H](O[C@@H]3O[C@H](CO[C@H]4O[C@H](CO)[C@@H](O)[C@H](O)[C@@H]4O[C@@H]4O[C@H](CO)[C@@H](O[C@@H]5O[C@H](CO[C@]6(C(=O)OCc7ccccc7)C[C@H](O)[C@@H](NC(C)=O)[C@H]([C@H](O)[C@H](O)CO)O6)[C@H](O)[C@H](O)[C@H]5O)[C@H](O)[C@H]4NC(C)=O)[C@@H](O)[C@H](O[C@H]4O[C@H](CO)[C@@H](O)[C@H](O)[C@@H]4O[C@@H]4O[C@H](CO)[C@@H](O[C@@H]5O[C@H](CO[C@]6(C(=O)OCc7ccccc7)C[C@H](O)[C@@H](NC(C)=O)[C@H]([C@H](O)[C@H](O)CO)O6)[C@H](O)[C@H](O)[C@H]5O)[C@H](O)[C@H]4NC(C)=O)[C@@H]3O)[C@H](O)[C@H]2NC(C)=O)[C@H](O)[C@H]1NC(C)=O)NC(=O)[C@H](CCCCN)NC(=O)[C@H](CC(C)C)NC(=O)[C@H](Cc1c[nH]c2ccccc12)NC(=O)[C@H](CCC(=O)O)NC(=O)[C@@H](NC(=O)[C@H](Cc1ccccc1)NC(=O)[C@H](CC(C)C)NC(=O)[C@H](CCCNC(=N)N)NC(=O)[C@@H](NC(=O)[C@H](C)NC(=O)[C@H](CSCC(=O)N[C@@H]1O[C@H](CO)[C@@H](O[C@@H]2O[C@H](CO)[C@@H](O[C@@H]3O[C@H](CO[C@H]4O[C@H](CO)[C@@H](O)[C@H](O)[C@@H]4O[C@@H]4O[C@H](CO)[C@@H](O[C@@H]5O[C@H](CO[C@]6(C(=O)OCc7ccccc7)C[C@H](O)[C@@H](NC(C)=O)[C@H]([C@H](O)[C@H](O)CO)O6)[C@H](O)[C@H](O)[C@H]5O)[C@H](O)[C@H]4NC(C)=O)[C@@H](O)[C@H](O[C@H]4O[C@H](CO)[C@@H](O)[C@H](O)[C@@H]4O[C@@H]4O[C@H](CO)[C@@H](O[C@@H]5O[C@H](CO[C@]6(C(=O)OCc7ccccc7)C[C@H](O)[C@@H](NC(C)=O)[C@H]([C@H](O)[C@H](O)CO)O6)[C@H](O)[C@H](O)[C@H]5O)[C@H](O)[C@H]4NC(C)=O)[C@@H]3O)[C@H](O)[C@H]2NC(C)=O)[C@H](O)[C@H]1NC(C)=O)NC(=O)[C@H](CCC(=O)O)NC(=O)[C@H](CCC(=O)O)NC(=O)[C@H](CCSC)NC(=O)[C@H](CCC(N)=O)NC(=O)[C@H](CCCCN)NC(=O)[C@H](CO)NC(=O)[C@H](CC(C)C)NC(=O)[C@H](CC(=O)O)NC(=O)[C@H](CO)NC(=O)[C@@H](NC(=O)[C@H](Cc1ccccc1)NC(=O)[C@@H](NC(=O)CNC(=O)[C@H](CCC(=O)O)NC(=O)CNC(=O)[C@@H](N)Cc1c[nH]cn1)[C@@H](C)O)[C@@H](C)O)C(C)C)[C@@H](C)CC)C(=O)O [AGM-212(E17C-11 sugar & N28C-11 sugar)] | 9.8 ± 1.3 fold induction over basal | 11250.94 ± 624.53 pg/mL | 22183.40 ± 830.19 pg/mL |  | solubility (Solubility by HPLC; H2O): < 8300 µg/mL; solubility (Solubility by HPLC; PBS): < 9500 µg/mL
HGEGTFTSDLSKQMEEC(undeca‑saccharide)AVRLFIEWLKNGGPSK(Decanoyl) (reading uncertain) [AGM-212(E17C-11 sugar)] |  |  |  | 10.1 fold induction over basal | 
HGEGTFTSDLSKQMEEC(undeca‑saccharide)AVRLFIC(undeca‑saccharide)WLKNGGPSK(Decanoyl) (reading uncertain) [AGM-212(E17C-11 sugar & E24C-11 sugar)] |  |  |  | 9.7 fold induction over basal | 
HGEGTFTSDLSKQMEEC(undeca‑saccharide)AVRLFIEWLKC(undeca‑saccharide)GGPSK(Decanoyl) (reading uncertain) [AGM-212(E17C-11 sugar & N28C-11 sugar)] |  |  |  | 9.8 fold induction over basal | 
